These results are taken from ChEMBL document CHEMBL6121032, “Mining Druggable Sites in Influenza A Hemagglutinin: Binding of the Pinanamine-Based Inhibitor M090” (ACS Med Chem Lett, 2025).

In this experiment the test system is Influenza A virus. The experiment in a line: Antiviral activity against Influenza virus A/WSN/33 expressing M2 S31N mutant channel infected in MDCK cells by plaque reduction assay. It is filed as functional, organism-based. A general note: Plaques are areas of infected cells; plaque reduction assays count them against a control.

A word on the EC50: it is the concentration at which the effect is half-maximal. Read a high EC50 as a less potent agent. `Brc1ccc(CNC23CC4CC(CC(C4)C2)C3)s1`: the EC50 was 1.8 mM.
